Results as given in patent publication US8143243B2, “Compounds for the treatment of hepatitis C” (Bristol-Myers Squibb Company, priority 2007, dated 2012).
Like-named read-outs stand apart in the source and are kept apart here.

Key:
HCV NS5B = target: T1, HCV NS5B (Hepatitis C virus genotype 1b, UniProt Q9WMX2); experiment: HCV NS5B RdRp enzyme assay (standard / modified); assay type: biochemical
T1 construct: The protein was expressed with an 18 amino acid C-terminal truncation to enhance the solubility; made in house; host or cells: E. coli BL21 (DE3)
T1 sequence (Q9WMX2 2420-2992): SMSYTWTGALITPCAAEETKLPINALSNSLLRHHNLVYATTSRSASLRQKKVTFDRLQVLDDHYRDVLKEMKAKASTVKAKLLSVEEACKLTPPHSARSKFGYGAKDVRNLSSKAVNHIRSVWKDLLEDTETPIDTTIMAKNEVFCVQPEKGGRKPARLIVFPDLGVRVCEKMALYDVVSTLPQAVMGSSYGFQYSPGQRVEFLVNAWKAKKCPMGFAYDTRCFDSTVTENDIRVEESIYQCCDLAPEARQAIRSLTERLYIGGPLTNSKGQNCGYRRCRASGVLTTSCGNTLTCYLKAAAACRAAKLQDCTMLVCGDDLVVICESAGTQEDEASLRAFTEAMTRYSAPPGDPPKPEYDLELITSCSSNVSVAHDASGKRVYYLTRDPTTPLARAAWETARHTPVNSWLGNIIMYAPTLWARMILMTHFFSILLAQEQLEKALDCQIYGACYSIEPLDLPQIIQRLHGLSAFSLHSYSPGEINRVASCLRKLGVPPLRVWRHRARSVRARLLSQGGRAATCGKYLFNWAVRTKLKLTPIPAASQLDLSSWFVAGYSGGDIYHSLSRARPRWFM
Method: HCV NS5B RdRp cloning, expression, and purification. The cDNA encoding the NS5B protein of HCV, genotype 1b, was cloned into the pET21a expression vector. The protein was expressed with an 18 amino acid C-terminal truncation to enhance the solubility. The E. coli competent cell line BL21 (DE3) was used for expression of the protein. Cultures were grown at 37° C. for ˜4 hours until the cultures reached an optical density of 2.0 at 600 nm. The cultures were cooled to 20° C. and induced with 1 mM IPTG. Fresh ampicillin was added to a final concentration of 50 μg/ml and the cells were grown overnight at 20° C.
Cell pellets (3 L) were lysed for purification to yield 15-24 mgs of purified NS5B. The lysis buffer consisted of 20 mM Tris-HCl, pH 7.4, 500 mM NaCl, 0.5% triton X-100, 1 mM DTT, 1 mM EDTA, 20% glycerol, 0.5 mg/ml lysozyme, 10 mM MgCl2, 15 ug/ml deoxyribonuclease I, and Complete TM protease inhibitor tablets (Roche). After addition of the lysis buffer, frozen cell pellets were resuspended using a tissue homogenizer. To reduce the viscosity of the sample, aliquots of the lysate were sonicated on ice using a microtip attached to a Branson sonicator. The sonicated lysate was centrifuged at 100,000×g for 1 hr at 4° C. and filtered through a 0.2 μm filter unit (Corning).
The protein was purified using three sequential chromatography steps: Heparin sepharose CL-6B, polyU sepharose 4B, and Hitrap SP sepharose (Pharmacia). The chromatography buffers were identical to the lysis buffer but contained no lysozyme, deoxyribonuclease I, MgCl2 or protease inhibitor and the NaCl concentration of the buffer was adjusted according to the requirements for charging the protein onto the column. Each column was eluted with a NaCl gradient which varied in length from 5-50 column volumes depending on the column type. After the final chromatography step, the resulting purity of the enzyme is >90% based on SDS-PAGE analysis. The enzyme was aliquoted and stored at −80° C.
Standard HCV NS5B RdRp enzyme assay. HCV RdRp genotype 1b assays were run in a final volume of 60 μl in 96 well plates (Costar 3912). The assay buffer is composed of 20 mM Hepes, pH 7.5, 2.5 mM KCl, 2.5 mM MgCl2, 1 mM DTT, 1.6 U RNAse inhibitor (Promega N2515), 0.1 mg/ml BSA (Promega R3961), and 2% glycerol. All compounds were serially diluted (3-fold) in DMSO and diluted further in water such that the final concentration of DMSO in the assay was 2%. HCV RdRp genotype 1b enzyme was used at a final concentration of 28 nM. A polyA template was used at 6 nM, and a biotinylated oligo-dT12 primer was used at 180 nM final concentration. Template was obtained commercially (Amersham 27-4110). Biotinylated primer was prepared by Sigma Genosys. 3H-UTP was used at 0.6 μCi (0.29 μM total UTP). Reactions were initiated by the addition of enzyme, incubated at 30° C. for 60 min, and stopped by adding 25 μl of 50 mM EDTA containing SPA beads (4 μg/μl, Amersham RPNQ 0007). Plates were read on a Packard Top Count NXT after >1 hr incubation at room temperature.
Modified HCV NS5B RdRp enzyme assay. A modified enzyme assay was performed essentially as described for the standard enzyme assay except for the following: The biotinylated oligo dT12 primer was precaptured on streptavidin-coated SPA beads by mixing primer and beads in assay buffer and incubating at room temperature for one hour. Unbound primer was removed after centrifugation. The primer-bound beads were resuspended in 20 mM Hepes buffer, pH 7.5 and used in the assay at final concentrations of 20 nM primer and 0.67 μg/μl beads. Order of addition in the assay: enzyme (14 nM) was added to diluted compound followed by the addition of a mixture of template (0.2 nM), 3H-UTP (0.6 μCi, 0.29 μM), and primer-bound beads, to initiate the reaction; concentrations given are final. Reactions were allowed to proceed for 4 hours at 30° C.
IC50 values for compounds were determined using seven different [I]. […]

HCV replicon cells = experiment: HCV replicon FRET / luciferase assay; assay type: cell-based; settings: Hepatitis C virus
Text: FRET Assay Preparation. To perform the HCV FRET screening assay, 96-well cell culture plates were used. The FRET peptide (Anaspec, Inc.) (Taliani et al., Anal. Biochem. 1996, 240, 60-67) contains a fluorescence donor, EDANS, near one end of the peptide and an acceptor, DABCYL, near the other end. The fluorescence of the peptide is quenched by […] resonance energy transfer (RET) between the donor and the acceptor, but as the NS3 protease cleaves the peptide the products are released from RET quenching and the fluorescence of the donor becomes apparent. The assay reagent was made as follows: 5× cell Luciferase cell culture lysis reagent from Promega (#E153A) diluted to 1× with dH2O, NaCl added to 150 mM final, the FRET peptide diluted to 20 μM final from a 2 mM stock.
To prepare plates, HCV replicon cells, with or without a Renilla luciferase reporter gene, were trypsinized and placed into each well of a 96-well plate with titrated test compounds added in columns 3 through 12; columns 1 and 2 contained a control compound (HCV protease inhibitor), and the bottom row contained cells without compound. The plates were then placed in a CO2 incubator at 37° C.
Assays. Subsequent to addition of the test compounds described above (FRET Assay Preparation), at various times the plate was removed and Alamar blue solution (Trek Diagnostics, #00-100) was added per well as a measure of cellular toxicity. After reading in a Cytoflour 4000 instrument (PE Biosystems), plates were rinsed with PBS and then used for FRET assay by the addition of 30 ul of the FRET peptide assay reagent described above (FRET Assay Preparation) per well. The plate was then placed into the Cytoflour 4000 instrument which had been set to 340 excite/490 emission, automatic mode for 20 cycles and the plate read in a kinetic mode. Typically, the signal to noise using an endpoint analysis after the reads was at least three-fold. Alternatively, after Alamar blue reading, plates were rinsed with PBS, 50 ul of DMEM (high glucose) without phenol red was added and plates were then used for luciferase assay using the Promega Dual-Glo Luciferase Assay System.
Compound analysis was determined by quantification of the relative HCV replicon inhibition and the relative cytotoxicity values. To calculate cytoxicity values, the average Alamar Blue fluorescence signals from the control wells were set as 100% non-toxic. The individual signals in each of the compound test wells were then divided by the average control signal and multiplied by 100% to determine […]. To calculate the HCV replicon inhibition values, an average background value was obtained from the two wells containing the highest amount of HCV protease inhibitor at the end of the assay period. These numbers were similar to those obtained from naïve Huh-7 cells.
The background numbers were then subtracted from the average signal obtained from the control wells and this number was used as 100% activity. The individual signals in each of the compound test wells were then divided by the averaged control values after background subtraction and multiplied by 100% to determine percent activity. EC50 values for a protease inhibitor titration were calculated as the concentration which caused a 50% reduction in FRET or luciferase activity. The two numbers generated for the compound plate, percent cytoxicity and percent activity were used to determine compounds of interest for further analysis.

[1] = HCV RdRp genotype 1b enzyme, read-out: IC50
[2] = HCV replicon cells, FRET or luciferase readout, read-out: EC50

| SMILES | IC50 (HCV NS5B) [nM] | EC50 (HCV replicon cells) [nM] | IC50 (HCV NS5B; [1]) [nM] | EC50 (HCV replicon cells; [2]) [nM] |
| --- | --- | --- | --- | --- |
| COc1ccc2c(c1)C=C(c1c(C(=O)N3CC4CCC(C3)N4C)cnn1CC(F)(F)F)Cn1c-2c(C2CCCCC2)c2ccc(C(=O)NS(=O)(=O)C(C)C)cc21 | 1 to 500 | 1 to 500 | – | – |
| COc1ccc2c(c1)C=C(c1ocnc1C(=O)N1CCOCC1)Cn1c-2c(C2CCCCC2)c2ccc(C(=O)OC(C)(C)C)cc21 | – | – | > 40 | > 40 |
| CCN1C[C@@H]2CC1CN2C(=O)c1cnn(C(C)C)c1C1=Cc2cc(OC)ccc2-c2c(C3CCCCC3)c3ccc(C(=O)NS(=O)(=O)C(C)C)cc3n2C1 | – | – | 1 to 500 | 1 to 500 |
| COc1ccc2c(c1)C=C(c1c(C(=O)N3C[C@@H]4C[C@H]3CO4)cnn1CC(F)(F)F)Cn1c-2c(C2CCCCC2)c2ccc(C(=O)NS(=O)(=O)C(C)C)cc21 | – | – | 1 to 500 | 1 to 500 |
| CCC(C)S(=O)(=O)NC(=O)c1ccc2c(C3CCCCC3)c3n(c2c1)CC(c1c(C(=O)N2C[C@@H](C)O[C@@H](C)C2)cnn1C)=Cc1cc(OC)ccc1-3 (some centres unmarked) | – | – | 1 to 500 | 1 to 500 |
| COc1ccc2c(c1)C=C(c1c(C(=O)N3C[C@@H](C)N(C)[C@@H](C)C3)cnn1C)Cn1c-2c(C2CCCCC2)c2ccc(C(=O)NS(=O)(=O)N3CCOCC3)cc21 | – | – | 1 to 500 | 1 to 500 |
| COC[C@@H]1CN(C(=O)c2cnn(CC(F)(F)F)c2C2=Cc3cc(OC)ccc3-c3c(C4CCCCC4)c4ccc(C(=O)NS(=O)(=O)C(C)C)cc4n3C2)CCO1 | – | – | 1 to 500 | 1 to 500 |
| COc1ccc2c(c1)C=C(c1c(C(=O)N3[C@@H]4CC[C@H]3C[C@@](C)(O)C4)cnn1C(C)C)Cn1c-2c(C2CCCCC2)c2ccc(C(=O)NS(=O)(=O)C(C)C)cc21 | 1 to 500 | 1 to 500 | – | – |
| COc1ccc2c(c1)C=C(c1c(C(=O)N3CC(C)OC(C)C3)cnn1C(C)C)Cn1c-2c(C2CCCCC2)c2ccc(C(=O)NS(=O)(=O)C(C)C)cc21 (centres unmarked) | – | – | 1 to 500 | 1 to 500 |
| COc1ccc2c(c1)C=C(c1c(C(=O)N3CCCC(N(C)C)C3)cnn1C)Cn1c-2c(C2CCCCC2)c2ccc(C(=O)NS(=O)(=O)C(C)C)cc21 (centres unmarked) | – | – | 1 to 500 | 1 to 500 |
| COc1ccc2c(c1)C=C(c1c(C(=O)N3CCOCC3)c(C(F)(F)F)nn1C)Cn1c-2c(C2CCCCC2)c2ccc(C(=O)NS(=O)(=O)C(C)C)cc21 | – | – | < 20 | 1 to 500 |
| CCn1ncc(C(=O)N2CCN(C)CC2)c1C1=Cc2cc(OC)ccc2-c2c(C3CCCCC3)c3ccc(C(=O)NS(=O)(=O)N(C)C)cc3n2C1 | – | – | 1 to 500 | 1 to 500 |
| CCC(C)S(=O)(=O)NC(=O)c1ccc2c(C3CCCCC3)c3n(c2c1)CC(c1c(C(=O)N2CCOC(COC)C2)cnn1C)=Cc1cc(OC)ccc1-3 (centres unmarked) | – | – | 1 to 500 | 1 to 500 |
| CCC(C)S(=O)(=O)NC(=O)c1ccc2c(C3CCCCC3)c3n(c2c1)CC(c1c(C(=O)N2CC(C)N(C)C(C)C2)cnn1C)=Cc1cc(OC)ccc1-3 (centres unmarked) | – | – | 1 to 500 | 1 to 500 |
| CCn1nc(C)c(C(=O)N2CC3CCC(C2)N3C)c1C1=Cc2cc(OC)ccc2-c2c(C3CCCCC3)c3ccc(C(=O)NS(=O)(=O)C(C)C)cc3n2C1 | 1 to 500 | 1 to 500 | – | – |
| COc1ccc2c(c1)C=C(c1c(C(=O)N3CCN(C(C)C)CC3)cnn1C)Cn1c-2c(C2CCCCC2)c2ccc(C(=O)NS(=O)(=O)N3CCOCC3)cc21 | – | – | 1 to 500 | 1 to 500 |
| COc1ccc2c(c1)C=C(c1c(C(=O)N3C4C=C(C)CC3CC4)cnn1C(C)C)Cn1c-2c(C2CCCCC2)c2ccc(C(=O)NS(=O)(=O)CC(C)C)cc21 (centres unmarked) | 1 to 500 | 1 to 500 | – | – |
| COc1ccc2c(c1)C=C(c1c(C(=O)N3CCOCC3)c(C)nn1C)Cn1c-2c(C2CCCCC2)c2ccc(C(=O)NS(=O)(=O)CC(C)C)cc21 | – | – | 1 to 500 | 1 to 500 |
| COc1ccc2c(c1)C=C(c1c(C(=O)N3C[C@H]4CC[C@@H](C3)N4C)cnn1C)Cn1c-2c(C2CCCCC2)c2ccc(C(=O)NS(=O)(=O)N3CCOCC3)cc21 | 1 to 500 | 1 to 500 | – | – |
| COc1ccc2c(c1)C=C(c1c(C(=O)N3[C@@H]4CC[C@H]3C[C@@](C)(O)C4)cnn1C(C)C)Cn1c-2c(C2CCCCC2)c2ccc(C(=O)NS(=O)(=O)CC(C)C)cc21 | 1 to 500 | 1 to 500 | – | – |
| CCn1nc(C)c(C(=O)N2C[C@@H](C)O[C@@H](C)C2)c1C1=Cc2cc(OC)ccc2-c2c(C3CCCCC3)c3ccc(C(=O)NS(=O)(=O)C(C)C)cc3n2C1 [drawing 580] | – | – | 1 to 500 | 1 to 500 |
| COc1ccc2c(c1)C=C(c1c(C(=O)N(CC3CCCO3)C(C)C)cnn1C)Cn1c-2c(C2CCCCC2)c2ccc(C(=O)NS(=O)(=O)C(C)C)cc21 (centres unmarked) | – | – | 1 to 500 | 1 to 500 |
